Experimental data as given in patent US9512414B2, “Thermostable beta-glucosidase” (HONDA MOTOR CO., LTD., priority 2014, dated 2016).

Tested on: thermostable β-glucosidase AR19G-228-1 (GH family 1), SEQ ID NO: 2, from hot spring soil metagenome AR19, expressed in E. coli
Test: Kinetics of PNPG hydrolysis by AR19G-228-1 β-glucosidase
Type: biochemical
Conditions: 100° C., acetate buffer pH 5.5
Source text: The β-glucosidase activity using PNPG as a substrate of the enzyme protein (AR19G-228-1) encoded by the AR19G-228-1 gene was investigated. A solution prepared by dissolving PNPG (manufactured by Sigma-Aldrich Co. LLC.) in water and adjusting to a predetermined final concentration was used as the substrate solution. It should be noted that the PNPG substrate solutions used in the experiments described below all used the PNPG aqueous solution prepared by the above method. PNPG (manufactured by Sigma-Aldrich Co. LLC.) was used as the substrate for measuring the β-glucosidase activity. In the measurements, the purified enzyme obtained in section <7> above was diluted to a concentration of 0.0075 mg/mL with 0.05 M Tris-HCl buffer (pH 8.0) and used.
For the reaction at a temperature of 50 to 90° C., a Thermomixer (manufactured by the Eppendorf AG) was used, a sample tube with a volume of 1.5 mL was used as a reaction vessel, and the amount of reaction solution was set to 200 μL. The reaction solution was composed of 5 μL of diluted purified enzyme, 45 μL of purified water, 50 μL of 200 mM acetate buffer (pH 5.5), and 100 μL of 60 mM PNPG aqueous solution. […]
In all measurements, a mixed solution prepared by replacing the purified enzyme solution with 50 mM Tris-HCl buffer (pH 8.0) and then reacting the solution under the same conditions was used as a control. […] The amount of p-nitrophenol in the supernatant was determined by measuring the absorbance at 420 nm using a spectrophotometer, calculating the amount of p-nitrophenol in the supernatant using a calibration curve prepared with p-nitrophenol, and then determining the amount of p-nitrophenol produced by the enzymatic hydrolysis by the difference from the control. […] In addition, each measurement was performed for three independent experiments, and a mean value and a standard error were determined. […]

SMILES: O=[N+]([O-])c1ccc(O[C@@H]2O[C@H](CO)[C@@H](O)[C@H](O)[C@H]2O)cc1 [PNPG, p-nitrophenyl-β-D-glucopyranoside]
- Km (PNPG 0.5-100 mM): 4.5 mM
- Vmax (PNPG 0.5-100 mM): 430.3 U/mg
- Kcat/Km (PNPG, calculated from Vmax and Km): 91500 M⁻¹ s⁻¹
